Data: US20020103377A1, “Piperidinyloxy and pyrrolidinyloxy oxazolidinone antibacterials” (priority 1999, published 2002)
Values after ≈ are worked out from the molar mass of the structure shown.

What was measured:
[1] = test system: E. faecium OC3312; experiment: MIC by microdilution broth method (NCCLS), E. faecium OC3312; type: cell-based; settings: Enterococcus faecium, OC3312, microdilution broth, cation adjusted Mueller-Hinton broth, 35° C., 16-20 hours; read-out: MIC (μg/mL) E. faecium OC3312
Method: (§1) Minimal inhibitory concentration (MIC) has been an indicator of in vitro antibacterial activity widely used in the art. The in vitro antimicrobial activity of the compounds was determined by the microdilution broth method following the test method from the National Committee for Laboratory Standards (NCCLS). This method is described in the NCCLS Document M7-A4, Vol. 17, No.2, “Methods for Dilution Antimicrobial Susceptibility Test for Bacteria that Grow Aerobically-Fourth Edition”, which is incorporated herein by reference.
(§2) In this method two-fold serial dilutions of drug in cation adjusted Mueller-Hinton broth are added to wells in microdilution trays. The test organisms are prepared by adjusting the turbidity of actively growing broth cultures so that the final concentration of test organism after it is added to the wells is approximately 5×10^4 CFU/well.
(§3) Following inoculation of the microdilution trays, the trays are incubated at 35° C. for 16-20 hours and then read. […] The amount of growth in the wells containing the test compound is compared with the amount of growth in the growth-control wells (no test compound) used in each tray. As set forth in Table 1, compounds of the present invention were tested against a variety of Gram positive and Gram negative pathogenic bacteria resulting in a range of activities, from 1 to ≧128 μg/mL depending on the organism tested.

[2] = test system: MRSA OC 2878; experiment: MIC by microdilution broth method (NCCLS), MRSA OC 2878; type: cell-based, Staphylococcus aureus; settings: Staphylococcus aureus, MRSA, cation adjusted Mueller-Hinton broth, 35° C., 16-20 hours, read-out: MIC (μg/mL) MRSA OC 2878
Method: as §1, §2, §3

[3] = test system: S. aureus; experiment: MIC by microdilution broth method (NCCLS), S. aureus Broth; type: cell-based; settings: Staphylococcus aureus, cation adjusted Mueller-Hinton broth, 35° C., 16-20 hours, read-out: MIC (μg/mL) S. aureus Broth
Method: as §1, §2, §3

| Structure (SMILES) | MIC [1] [µg/mL] | MIC [2] [µg/mL] | MIC [3] [µg/mL] | melting point [°C] |
| --- | --- | --- | --- | --- |
| CC(=O)NC[C@H]1CN(c2ccc(OC3CN(C(=O)COC(C)=O)C3)c(F)c2)C(=O)O1 [Compound 59, (S)-N-[[3-[3-Fluoro-4-{N-(acetoxyacetyl)azetidinyl-3-oxy}phenyl]-2-oxo-5-oxazolidinyl]methyl]acetamide] | 16 (≈ 37.8 µM) | 8 (≈ 18.9 µM) | 4 (≈ 9.45 µM) | 172 to 175 |
| CC(=O)NC[C@H]1CN(c2ccc(OC3CCN(C(=O)OC(C)(C)C)CC3)c(F)c2)C(=O)O1 [Compound 1, (S)-N-[[3-[3-Fluoro-4-{N-(t-butoxycarbonyl)piperidinyl-4-oxy}phenyl]-2-oxo-5-oxazolidinyl]methyl]acetamide] | > 32 | 16 (≈ 35.4 µM) | 32 (≈ 70.9 µM) | 179 to 180 |
| CC(=O)NC[C@H]1CN(c2ccc(OC3CCN(S(C)(=O)=O)CC3)nc2)C(=O)O1 [Compound 44, (5S)-3-[6-{N-(Methanesulfonyl)piperidinyl-4-oxy}-pyridin-3-yl]-5-methylacetamide-oxazolidin-2-one] | 128 (≈ 310 µM) | 64 (≈ 155 µM) | 32 (≈ 77.6 µM) | 175 to 176 |
| CC(=O)NC[C@H]1CN(c2ccc(OC3CCN(C(=O)N4CCOCC4)CC3)c(F)c2)C(=O)O1 [Compound 25, (S)-N-[[3-[3-Fluoro-4-{N-(4-morpholinocarbamoyl)piperidinyl-4-oxy}phenyl]-2-oxo-5-oxazolidinyl]methyl]acetamide] | 64 (≈ 138 µM) | 32 (≈ 68.9 µM) | 32 (≈ 68.9 µM) | 167 to 170 |
| CC(=O)NC[C@H]1CN(c2ccc(OC3CCN(C(=O)COC(C)=O)CC3)c(F)c2)C(=O)O1 [Compound 53, (S)-N-[[3-[3-Fluoro-4-{N-(acetoxyacetyl)piperidinyl-4-oxy}phenyl]-2-oxo-5-oxazolidinyl]methyl]acetamide] | 16 (≈ 35.4 µM) | 8 (≈ 17.7 µM) | 8 (≈ 17.7 µM) | 146 to 147.5 |

More lines, in order of falling MIC [1], values ahead:

| MIC [1] [µg/mL] | MIC [2] [µg/mL] | MIC [3] [µg/mL] | melting point [°C] | Structure (SMILES) |
| --- | --- | --- | --- | --- |
| 64 (≈ 142 µM) | 16 (≈ 35.5 µM) | 8 (≈ 17.8 µM) | 66 to 68 | CC(=O)NCC(=O)N1CCC(Oc2ccc(N3C[C@H](CNC(C)=O)OC3=O)cc2F)CC1 [Compound 18, (S)-N-[[3-[3-Fluoro-4-{N-(α-N-acetylaminoacetyl)piperidinyl-4-oxy}phenyl]-2-oxo-5-oxazolidinyl]methyl]acetamide] |
| 32 (≈ 78.3 µM) | 32 (≈ 78.3 µM) | 32 (≈ 78.3 µM) | 142 to 146 | CC(=O)NC[C@H]1CN(c2ccc(OC3CCN(C(=O)CN)CC3)c(F)c2)C(=O)O1 [Compound 16] |
| 32 (≈ 75.7 µM) | 16 (≈ 37.9 µM) | 8 (≈ 18.9 µM) | 129 to 131 | CC(=O)NC[C@H]1CN(c2ccc(OC3CCN(C(=O)N(C)C)CC3)c(F)c2)C(=O)O1 [Compound 24, (S)-N-[[3-[3-Fluoro-4-{N-(dimethylcarbamoyl)piperidinyl-4-oxy}phenyl]-2-oxo-5-oxazolidinyl]methyl]acetamide] |
| 16 (≈ 35.1 µM) | 8 (≈ 17.5 µM) | 8 (≈ 17.5 µM) | 55 to 58 | CC(=O)NC[C@H]1CN(c2ccc(OC3CCN(C(=O)c4ccccn4)CC3)c(F)c2)C(=O)O1 [Compound 20, (S)-N-[[3-[3-Fluoro-4-{N-(2-pyridoyl)piperidinyl-4-oxy}phenyl]-2-oxo-5-oxazolidinyl]methyl]acetamide] |
| 16 (≈ 33 µM) | 16 (≈ 33 µM) | 16 (≈ 33 µM) | 45 to 47 | CC(=O)NC[C@H]1CN(c2ccc(OC3CCN(C(=O)CCc4cccnc4)CC3)c(F)c2)C(=O)O1 [Compound 27, (S)-N-[[3-[3-Fluoro-4-{N-(3-pyridin-3-yl-propionyl)piperidinyl-4-oxy}phenyl]-2-oxo-5-oxazolidinyl]methyl]acetamide] |
| 16 (≈ 32.9 µM) | 16 (≈ 32.9 µM) | 8 (≈ 16.4 µM) | 78 to 82 | CC(=O)NC[C@H]1CN(c2ccc(OC3CCN(C(=O)CNS(C)(=O)=O)CC3)c(F)c2)C(=O)O1 [Compound 17, (S)-N-[[3-[3-Fluoro-4-{N-(α-methylsulfonylaminoacetyl)piperidinyl-4-oxy}phenyl]-2-oxo-5-oxazolidinyl]methyl]acetamide] |
| 8 (≈ 17.6 µM) | 4 (≈ 8.82 µM) | 4 (≈ 8.82 µM) | 78 to 84 | CC(=O)NC[C@H]1CN(c2ccc(OC3CCN(c4ccc(C#N)cn4)CC3)c(F)c2)C(=O)O1 [Compound 14, (S)-N-[[3-[3-Fluoro-4-{N-(5-cyano-2-pyridyl)piperidinyl-4-oxy}phenyl]-2-oxo-5-oxazolidinyl]methyl]acetamide] |
